Data from publication PMC7181695, “Targeting the interaction between RNA-binding protein HuR and FOXQ1 suppresses breast cancer invasion and metastasis” (Communications Biology, 2020).

Target: T1, HuR (Hu antigen R, ELAVL1) (Homo sapiens, UniProt Q15717)
T1 construct: full-length HuR (FP, SPR); HuR RRM1/2 (AlphaLISA, SPR)
Assay: FP competition with fluorescein-labeled ARE-Msi1 RNA; SPR direct binding to immobilized HuR; AlphaLISA (Ki […]); CETSA in MDA-MB-231 cells

T1 sequence (Q15717 2-326): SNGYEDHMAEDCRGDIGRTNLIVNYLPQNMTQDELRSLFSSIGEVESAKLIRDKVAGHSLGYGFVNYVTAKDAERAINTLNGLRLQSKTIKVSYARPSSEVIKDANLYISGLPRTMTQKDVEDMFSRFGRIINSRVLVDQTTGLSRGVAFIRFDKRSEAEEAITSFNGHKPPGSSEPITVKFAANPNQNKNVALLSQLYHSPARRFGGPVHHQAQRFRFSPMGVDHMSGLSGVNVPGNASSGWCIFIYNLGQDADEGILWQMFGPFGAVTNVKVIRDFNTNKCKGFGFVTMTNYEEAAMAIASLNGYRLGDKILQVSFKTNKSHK

Ki: 830 nM
Compound: CC(C)(C)c1ccc(S(=O)(=O)Nc2ccc3sc(/C=C/C(=O)NO)cc3c2)cc1 [KH-3, (E)-3-(5-((4-(tert-Butyl)phenyl)sulfonamido)benzo[b]thiophen-2-yl)-N-hydroxyacrylamide]
